Data as given in US7884136B2, “Modified-release formulations of a bupropion salt” (Biovail Laboratories International S.R.L., priority 2005, dated 2011).

What was measured:
[1] = pH of 0.5% aqueous solution of bupropion salts; format: physicochemical
Procedure: (§1) The eight salts were first evaluated by HPLC, KF, pH and DSC for purity, water content, aqueous pH and possible polymorphs.
(§2) The salts were analysed by DSC (at 10° C./min from 30° C. up to 400° C.) and the pH (aq. 0.5%), and the moisture content by KF were also measured. The TGA was performed on the HCl, maleate, tosylate and HBr salts.

[2] = Dynamic Vapour Sorption (DVS) hygroscopicity of bupropion HBr; format: physicochemical; conditions: for DVS: water uptake / hygroscopicity (words): range 0% RH-90% RH, hydrobromide
[3] = Forced degradation of bupropion HBr and HCl in the presence of excipients at 55° C., 55° C./100% RH, 100° C. and 105° C.; format: physicochemical; conditions: 24 and 48 hours at 55° C., 105 degrees C., hydrobromide
Procedure: Forced degradation studies were also performed on bupropion HBr and bupropion HCl API's in the presence of standard excipients used in pharmaceutical formulations.
Further forced degradation studies were carried out at 55° C., at 55° C. and 100% relative humidity, at 100° C., and at 105° C. on both the HCl and HBr Bupropion salts in the presence of excipients. The average weight of the excipients and the weight of the active pharmaceutical ingredient (API) present in the samples are presented in Table 72. […] FIG. 53 is a graph showing the loss of each salt over time in a TGA experiment at 100° C.

[4] = TGA experiment at 100° C., loss of API salt over time; format: physicochemical; conditions: TGA at 100° C.
Procedure: The average weight of the excipients and the weight of the active pharmaceutical ingredient (API) present in the samples are presented in Table 72. […] FIG. 53 is a graph showing the loss of each salt over time in a TGA experiment at 100° C.

[5] = Solubility of Bupropion HBr vs Bupropion HCl in water, EtOH, IPA; format: physicochemical
[6] = Comparative forced degradation of bupropion HCl and HBr API salts, closed glass bottle, 40° C./75% RH, HPLC; format: physicochemical; conditions: for % Assay / % Impurities 3-CBZ / % Impurities 20U78/dilu / % Impurities 827U76 / % Impurities 852U77 / % Impurities Total unknown / Total (%) impurities: closed glass bottle
Procedure: Further stability tests were performed by directly comparing bupropion HBr and bupropion HCl salts in forced degradation studies. […] At specified times, the material in the bottles was analyzed for the presence of degradation products and % potency (% assay).
The samples were exposed to the above conditions in a closed bottle for few days, and then subjected to HPLC analysis. The amount of the main degradation products present after treatment were compared with those amounts that were present initially.
The samples were analysed after 14 and 24 days (study-1) and 10 days (study II), in a quantitative manner by direct treatment of the whole content of the bottle as per the HPLC standard test method (P05.901.10).

[7] = Moisture content of bupropion salts by KF; format: physicochemical
Procedure: as §1, §2

[8] = Forced degradation stability study of bupropion salts spiked with placebo/excipients, closed vials, 40° C./75% RH, HPLC assay and impurities
Procedure: The stability of the salts was evaluated based on the formation of the main degradation products (see below) as determined by HPLC analysis and the % potency (or assay) of the API, after specific time periods in the stability chamber. The effect of the addition of solvents, such as water, ethanol and isopropyl alcohol, was also studied.
The samples of each salt and the spiked salts with the bupropion HCl XL were prepared under the conditions mentioned in Table 4. […] The stability of the bupropion salts were evaluated based on the formation of the main degradation product 3-chlorobenzoic acid (3-CBZ) and the intermediate degradation products diketone 827U76 and the ketohydroxyl derivatives (20U78 and 852U77) (Scheme 2).
As mentioned above, the stability samples were prepared in 2 mL vials and used directly for assay and impurity analysis by HPLC without further sample preparations to minimize errors.

[9] = repeat study, 40 C/75% RH, 10 Days, Lot# STN07491, hydrobromide
[10] = repeat study, 40 C/75% RH, 10 Days, Lot# STN07492, hydrobromide
[11] = repeat study, 40 C/75% RH, Initial, Lot# STN07491, hydrobromide
[12] = repeat study, 40 C/75% RH, Initial, Lot# STN07492, hydrobromide
[13] = In IPA/EtOH, 32 days, closed vials
[14] = In water, 32 days, closed vials
[15] = salt plus excipients, 20 days, closed vial, 40° C./75% RH

Compound: Br.CC(NC(C)(C)C)C(=O)c1cccc(Cl)c1 (centres unmarked) [Bupropion HBr, bupropion hydrobromide]
- pH (aq. 0.5%), Original (Initial APIs) ([1]; 0.5% aqueous solution, original API salts): 5.92
- pH (aq. 0.5%) ([1]; Table 3, supplier API): 5.92
- DVS: maximum water uptake ([2]; at 90% RH): 0.14 % weight
- DVS: water uptake / hygroscopicity (words) ([2]; listed as HBr): non-hygroscopic
- DVS: water uptake / hygroscopicity (words) ([2]; listed as bupropion HBr): no significant water uptake
- Degradation in the presence of excipients (formation of impurities, words) ([3]; listed as HBr): lowest amount of degradation
- Degradation in the presence of excipients (formation of impurities, words) ([3]; listed as bupropion HBr): significant improvements in stability compared to bupropion HCl
- Disproportionation of the salt at elevated temperature [4]: did not occur
- Solubility, EtOH ([5]; EtOH): 92 mg/mL
- Solubility, IPA ([5]; IPA): 12 mg/mL
- Solubility, Water ([5]; water): 143 mg/mL
- Impurities and % potency compared to the HCl salt ([6]; closed bottles, 40 degrees C. and 75% relative humidity): amount of impurities was consistently lower and the % potency was consistently higher
- % Assay ([6]; 40° C./75% RH, 14-Days): 98.8%
- % Impurities 3-CBZ ([6]; 40° C./75% RH, 14-Days): 0.015%
- % Impurities 20U78/dilu ([6]; 40° C./75% RH, 14-Days): 0.048%
- % Impurities 827U76 ([6]; 40° C./75% RH, 14-Days): 0.012%
- % Impurities 852U77 ([6]; 40° C./75% RH, 14-Days): 0.058%
- % Impurities Total unknown ([6]; 40° C./75% RH, 14-Days): 0.105%
- Total (%) impurities ([6]; 40° C./75% RH, 14-Days): 0.23%
- % Assay ([6]; 40° C./75% RH, 24 Days): 99.5%
- % Impurities 3-CBZ ([6]; 40° C./75% RH, 24 Days): 0.022%
- % Impurities 20U78/dilu ([6]; 40° C./75% RH, 24 Days): 0.038%
- % Impurities 827U76 ([6]; 40° C./75% RH, 24 Days): 0.016%
- % Impurities 852U77 ([6]; 40° C./75% RH, 24 Days): 0.052%
- % Impurities Total unknown ([6]; 40° C./75% RH, 24 Days): 0.104%
- Total (%) impurities ([6]; 40° C./75% RH, 24 Days): 0.23%
- % Assay ([6]; 40° C./75% RH, Initial): 99.6%
- % Impurities 3-CBZ ([6]; 40° C./75% RH, Initial): 0.007%
- % Impurities 20U78/dilu ([6]; 40° C./75% RH, Initial): 0.044%
- % Impurities 852U77 ([6]; 40° C./75% RH, Initial): 0.009%
- % Impurities Total unknown ([6]; 40° C./75% RH, Initial): 0.098%
- Total (%) impurities ([6]; 40° C./75% RH, Initial): 0.16%
- % Impurities 827U76 ([6]; repeat study, 40 C/75% RH, 10 Days): 0.039%
- % Assay [6, 9]: 98.2%
- % Impurities 3-CBZ [6, 9]: 0.070%
- % Impurities 20U78/dilu [6, 9]: 0.051%
- % Impurities 852U77 [6, 9]: 0.125%
- % Impurities Total unknown [6, 9]: 0.129%
- Total (%) impurities [6, 9]: 0.42%
- % Assay [6, 10]: 99.2%
- % Impurities 3-CBZ [6, 10]: 0.031%
- % Impurities 20U78/dilu [6, 10]: 0.044%
- % Impurities 852U77 [6, 10]: 0.055%
- % Impurities Total unknown [6, 10]: 0.15%
- Total (%) impurities [6, 10]: 0.24%
- % Impurities 20U78/dilu ([6]; repeat study, 40 C/75% RH, Initial): 0.041%
- % Assay [6, 11]: 99.5%
- % Impurities 3-CBZ [6, 11]: 0.011%
- % Impurities Total unknown [6, 11]: 0.129%
- Total (%) impurities [6, 11]: 0.17%
- % Assay [6, 12]: 99.6%
- % Impurities 3-CBZ [6, 12]: 0.007%
- % Impurities Total unknown [6, 12]: 0.194%
- Total (%) impurities [6, 12]: 0.23%
- Moisture Content (KF) ([7]; Table 3, supplier API): 0.00%
- KF (moisture content), Original (Initial APIs) ([7]; original API salts): 0.00%
- Order of stability (assay) with IPA & EtOH ([8]; DS and excipients spiked with IPA & EtOH, 32 days, closed vials, 40° C.): HCl>HBr>tosylate>maleate>fumarate
- Order of stability (assay) with water ([8]; DS and excipients spiked with water, 32 days, closed vials, 40° C.): tosylate>maleate>HCl>HBr>fumarate
- Stability in the forced degradation stability studies, overall ([8]; DS and spiked DS, 40° C./75% RH): superior stability in a closed container
- Content of impurity 3-CBZ, order of salts [8, 13]: maleate > HBr > HCl > Fumarate
- Content of impurity 852U77, order of salts [8, 13]: fumarate > HBr ≈ HCl ≈ maleate ≈ tosylate
- Total imp., order of salts [8, 13]: fumarate > maleate > HBr > HCl > tosylate
- Content of impurity 3-CBZ, order of salts [8, 14]: HCl > HBr ≈ maleate ≈ fumarate
- Content of impurity 852U77, order of salts [8, 14]: fumarate > HBr > maleate > HCl
- Total imp., order of salts [8, 14]: fumarate > HBr > HCl > tosylate > maleate
- Degradation products and retained activity compared with all salts tested ([8]; open and closed vials, 40 degrees C./75% RH, 'after at least 3 months or after at least 6 months'): least amount of degradation products
- Impurities (3-CBZ, 852U77 & total) compared to the other salts [8, 15]: lowest
- Order of stability (assay, % potency) [8, 15]: HBr>HCl=tosylate>fumarate>maleate
